Results: ChEMBL document CHEMBL1201862, “PubChem BioAssay data set” (2004)
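All cell lines were grown in 96-well plates and treated with compound for 48 hours. At the GI50, growth is halved.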 Activity calls are given as the source filed them. No stated cut-off is given here; in the data, active = GI50 up to about 1.1 µM and inactive = higher.

Experiments:
Test in all cases: DTP human tumour cell line panel, 48 h
A498 = tested on: A498
A549 = tested on: A549
CAKI-1 = tested on: CAKI-1
CCRF-CEM = tested on: CCRF-CEM
COLO 205 = tested on: COLO 205
DLD-1 = tested on: DLD-1
DMS-114 = tested on: DMS-114
DMS-273 = tested on: DMS-273
EKVX = tested on: EKVX
HCC 2998 = tested on: HCC 2998
HCT-116 = tested on: HCT-116
HCT-15 = tested on: HCT-15
HL-60 = tested on: HL-60
HOP-18 = tested on: HOP-18
HOP-62 = tested on: HOP-62
HOP-92 = tested on: HOP-92
HT-29 = tested on: HT-29
IGROV-1 = tested on: IGROV-1
K562 = tested on: K562
KM-20L2 = tested on: KM-20L2
KM12 = tested on: KM12
LOX IMVI = tested on: LOX IMVI
M19-MEL = tested on: M19-MEL
MCF7 = tested on: MCF7
MOLT-4 = tested on: MOLT-4
Malme-3M = tested on: Malme-3M
NCI-H226 = tested on: NCI-H226
NCI-H23 = tested on: NCI-H23
NCI-H460 = tested on: NCI-H460
NCI-H522 = tested on: NCI-H522
NCI/ADR-RES = tested on: NCI/ADR-RES
OVCAR-3 = tested on: OVCAR-3
OVCAR-4 = tested on: OVCAR-4
OVCAR-5 = tested on: OVCAR-5
OVCAR-8 = tested on: OVCAR-8
RPMI-8226 = tested on: RPMI-8226
RXF 393 = tested on: RXF 393
SF-268 = tested on: SF-268
SF-295 = tested on: SF-295
SF-539 = tested on: SF-539
SK-MEL-28 = tested on: SK-MEL-28
SK-MEL-2 = tested on: SK-MEL-2
SK-MEL-5 = tested on: SK-MEL-5
SK-OV-3 = tested on: SK-OV-3
SN12C = tested on: SN12C
SNB-19 = tested on: SNB-19
SNB-75 = tested on: SNB-75
SNB-78 = tested on: SNB-78
SW-620 = tested on: SW-620
U-251 = tested on: U-251
UACC-62 = tested on: UACC-62
UO-31 = tested on: UO-31
XF498 = tested on: XF498
786-0 = tested on: 786-0
ACHN = tested on: ACHN
LXFL 529 = tested on: LXFL 529
M14 = tested on: M14
RXF 631 = tested on: RXF 631
SR = tested on: SR
TK-10 = tested on: TK-10
UACC-257 = tested on: UACC-257

Q: Which GI50 (A498) does the source give for CN(C)C(=O)OCOC(=O)N(C)C here?
A: Its GI50 is > 100 µM (inactive).

Q: And the GI50 (A549)?
A: Its GI50 is > 100 µM (inactive).

Q: What about the GI50 (CAKI-1) of the same compound?
A: The GI50 was > 100 µM (inactive).

Q: What about the GI50 (CCRF-CEM) of the same compound?
A: Its GI50 is > 100 µM (inactive).

Q: What about the GI50 (COLO 205) of the same compound?
A: The GI50 was > 100 µM (inactive).

Q: And the GI50 (DLD-1)?
A: Its GI50 is > 100 µM (inactive).

Q: And the GI50 (DMS-114)?
A: The GI50 was > 100 µM (inactive).

Q: And the GI50 (DMS-273)?
A: Its GI50 is > 100 µM (inactive).

Q: What about the GI50 (EKVX) of the same compound?
A: Its GI50 is > 100 µM (inactive).

Q: What about the GI50 (HCC 2998) of the same compound?
A: The GI50 was > 91.8 µM (inactive).

Q: What about the GI50 (HCT-116) of the same compound?
A: Its GI50 is > 100 µM (inactive).

Q: And the GI50 (HCT-15)?
A: Its GI50 is over 100 µM.

Q: What about the GI50 (HL-60) of the same compound?
A: Its GI50 is > 31.6 µM (inactive).

Q: And the GI50 (HOP-18)?
A: The GI50 was > 100 µM (inactive).

Q: What about the GI50 (HOP-62) of the same compound?
A: The GI50 was > 100 µM (inactive).

Q: And the GI50 (HOP-92)?
A: Its GI50 is > 92.5 µM (inactive).

Q: What about the GI50 (HT-29) of the same compound?
A: Its GI50 is > 100 µM (inactive).

Q: What about the GI50 (IGROV-1) of the same compound?
A: The GI50 was > 100 µM (inactive).

Q: And the GI50 (K562)?
A: The GI50 was > 100 µM (inactive).

Q: What about the GI50 (KM-20L2) of the same compound?
A: The GI50 was > 100 µM (inactive).

Q: What about the GI50 (KM12) of the same compound?
A: Its GI50 is > 100 µM (inactive).

Q: And the GI50 (LOX IMVI)?
A: The GI50 was > 100 µM (inactive).

Q: And the GI50 (M19-MEL)?
A: Its GI50 is > 100 µM (inactive).

Q: And the GI50 (MCF7)?
A: The GI50 was > 100 µM (inactive).

Q: And the GI50 (MOLT-4)?
A: Its GI50 is > 100 µM (inactive).

Q: And the GI50 (Malme-3M)?
A: Its GI50 is > 100 µM (inactive).

Q: And the GI50 (NCI-H226)?
A: The GI50 was > 100 µM (inactive).

Q: And the GI50 (NCI-H23)?
A: Its GI50 is > 100 µM (inactive).

Q: And the GI50 (NCI-H460)?
A: Its GI50 is > 100 µM (inactive).

Q: What about the GI50 (NCI-H522) of the same compound?
A: The GI50 was > 100 µM (inactive).

Q: What about the GI50 (NCI/ADR-RES) of the same compound?
A: Its GI50 is > 100 µM (inactive).

Q: What about the GI50 (OVCAR-3) of the same compound?
A: Its GI50 is > 100 µM (inactive).

Q: And the GI50 (OVCAR-4)?
A: The GI50 was > 100 µM (inactive).

Q: What about the GI50 (OVCAR-5) of the same compound?
A: The GI50 was > 100 µM (inactive).

Q: What about the GI50 (OVCAR-8) of the same compound?
A: Its GI50 is > 100 µM (inactive).

Q: What about the GI50 (RPMI-8226) of the same compound?
A: Its GI50 is > 100 µM (inactive).

Q: And the GI50 (RXF 393)?
A: Its GI50 is > 100 µM (inactive).

Q: And the GI50 (SF-268)?
A: The GI50 was > 100 µM (inactive).

Q: And the GI50 (SF-295)?
A: The GI50 was > 100 µM (inactive).

Q: And the GI50 (SF-539)?
A: Its GI50 is > 100 µM (inactive).

Q: And the GI50 (SK-MEL-28)?
A: Its GI50 is > 100 µM (inactive).

Q: What about the GI50 (SK-MEL-2) of the same compound?
A: The GI50 was > 100 µM (inactive).

Q: What about the GI50 (SK-MEL-5) of the same compound?
A: Its GI50 is > 100 µM (inactive).

Q: And the GI50 (SK-OV-3)?
A: Its GI50 is > 100 µM (inactive).

Q: What about the GI50 (SN12C) of the same compound?
A: Its GI50 is > 100 µM (inactive).

Q: And the GI50 (SNB-19)?
A: Its GI50 is > 100 µM (inactive).

Q: And the GI50 (SNB-75)?
A: Its GI50 is > 82.8 µM (inactive).

Q: And the GI50 (SNB-78)?
A: The GI50 was > 100 µM (inactive).

Q: And the GI50 (SW-620)?
A: Its GI50 is > 100 µM (inactive).

Q: What about the GI50 (U-251) of the same compound?
A: Its GI50 is > 100 µM (inactive).

Q: And the GI50 (UACC-62)?
A: Its GI50 is > 100 µM (inactive).

Q: And the GI50 (UO-31)?
A: The GI50 was > 100 µM (inactive).

Q: And the GI50 (XF498)?
A: The GI50 was > 100 µM (inactive).

Q: What does the source list for CC1=C(/C=C/C2=CC(=C\C(=O)O)/CC(C3=C(C)CCCC3(C)C)C2)C(C)(C)CCC1 (stereo unspecified)?
A: GI50 (786-0): 14.8 µM (inactive); GI50 (A498): 15.2 µM (inactive); GI50 (A549): 4.8 µM (inactive); GI50 (ACHN): 10.4 µM (inactive); GI50 (CAKI-1): 15.9 µM (inactive); GI50 (COLO 205): 16.4 µM (inactive); GI50 (DLD-1): 12.2 µM (inactive); GI50 (DMS-114): 10.9 µM (inactive); GI50 (DMS-273): 13.9 µM (inactive); GI50 (EKVX): 11.3 µM (inactive); GI50 (HCT-116): 15 µM (inactive); GI50 (HOP-18): 14 µM (inactive); GI50 (HOP-62): 14 µM (inactive); GI50 (HOP-92): 11.2 µM (inactive); GI50 (HT-29): 13.6 µM (inactive); GI50 (IGROV-1): 13.2 µM (inactive); GI50 (KM12): 11.9 µM (inactive); GI50 (LOX IMVI): 13.7 µM (inactive); GI50 (LXFL 529): 13.8 µM (inactive); GI50 (M14): 14.8 µM (inactive); GI50 (M19-MEL): 15.3 µM (inactive); GI50 (MOLT-4): 3.01 µM (inactive); GI50 (Malme-3M): 18.7 µM (inactive); GI50 (NCI-H226): 11.2 µM (inactive); GI50 (NCI-H23): 13.9 µM (inactive); GI50 (NCI-H460): 13.9 µM (inactive); GI50 (NCI-H522): 10.6 µM (inactive); GI50 (OVCAR-3): 14 µM (inactive); GI50 (OVCAR-4): 13.7 µM (inactive); GI50 (OVCAR-5): 16.4 µM (inactive); GI50 (OVCAR-8): 14.7 µM (inactive); GI50 (RPMI-8226): 5.36 µM (inactive); GI50 (RXF 393): 10.8 µM (inactive); GI50 (RXF 631): 11.1 µM (inactive); GI50 (SF-268): 20.9 µM (inactive); GI50 (SF-295): 10.1 µM (inactive); GI50 (SF-539): 16.8 µM (inactive); GI50 (SK-MEL-28): 16 µM (inactive); GI50 (SK-MEL-2): 11.3 µM (inactive); GI50 (SK-MEL-5): 14.8 µM (inactive); GI50 (SK-OV-3): 13.7 µM (inactive); GI50 (SN12C): 15.6 µM (inactive); GI50 (SNB-19): 14.3 µM (inactive); GI50 (SNB-75): 14.6 µM (inactive); GI50 (SNB-78): 20.7 µM (inactive); GI50 (SR): 5.65 µM (inactive); GI50 (SW-620): 15 µM (inactive); GI50 (TK-10): 13.5 µM (inactive); GI50 (U-251): 11.1 µM (inactive); GI50 (UACC-257): 15.6 µM (inactive); GI50 (UACC-62): 10.9 µM (inactive); GI50 (UO-31): 10.7 µM (inactive); GI50 (XF498): 14.4 µM (inactive)
